Where a name gives a salt, the structure may show the parent alone.

This passage reports Ki results from patent publication US7022701B2, “Indolylalkylamine derivatives as 5-hydroxytryptamine-6 ligands” (Wyeth, priority 2001, dated 2006).

T1 sequence (P50406 whole entry): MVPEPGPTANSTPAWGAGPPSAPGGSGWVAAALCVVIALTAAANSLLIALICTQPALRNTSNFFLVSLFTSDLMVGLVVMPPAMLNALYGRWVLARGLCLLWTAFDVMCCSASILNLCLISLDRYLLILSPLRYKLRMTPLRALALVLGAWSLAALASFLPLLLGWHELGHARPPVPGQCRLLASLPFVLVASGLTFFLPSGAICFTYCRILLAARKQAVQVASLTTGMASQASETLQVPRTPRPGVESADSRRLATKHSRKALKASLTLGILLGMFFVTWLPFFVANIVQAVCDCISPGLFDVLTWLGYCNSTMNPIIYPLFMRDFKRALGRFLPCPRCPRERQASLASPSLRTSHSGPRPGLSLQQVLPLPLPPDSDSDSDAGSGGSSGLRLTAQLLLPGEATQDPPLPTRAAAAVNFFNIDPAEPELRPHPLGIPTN

One assay addresses T1, human cloned 5-HT6 receptors (Homo sapiens, UniProt P50406).
T1 construct: expressed in transfected cells; host or cells: Hela cells
The assay can be described thus: 5-HT6 binding affinity, [3H]-LSD displacement on membranes of Hela cells expressing the receptor.
Details: not given
On the procedure:
The affinity of test compounds for the serotonin 5-HT6 receptor is evaluated in the following manner. Cultured Hela cells expressing human cloned 5-HT6 receptors are harvested and centrifuged at low speed (1,000×g) for 10.0 min to remove the culture media. The harvested cells are suspended in half volume of fresh physiological phosphate buffered saline solution and recentrifuged at the same speed. This operation is repeated. The collected cells are then homogenized in ten volumes of 50 mM Tris.HCl (pH 7.4) and 0.5 mM EDTA. The homogenate is centrifuged at 40,000×g for 30.0 min and the precipitate is collected. The obtained pellet is resuspended in 10 volumes of Tris.HCl buffer and recentrifuged at the same speed. The final pellet is suspended in a small volume of Tris.HCl buffer and the tissue protein content is determined in aliquots of 10–25 μl volumes. […] The volume of the suspended cell membranes is adjusted to give a tissue protein concentration of 1.0 mg/ml of suspension. The prepared membrane suspension (10 times concentrated) is aliquoted in 1.0 ml volumes and stored at −70° C. until used in subsequent binding experiments.
Binding experiments are performed in a 96 well microtiter plate format, in a total volume of 200 μl. […] The test compounds are added in 20.0 μl volume.
The bound complex caught on the filter disk is allowed to air dry and the radioactivity is measured in a Packard TopCount® equipped with six photomultiplier detectors, after the addition of 40.0 μl Microscint®-20 scintillant to each shallow well. The unifilter plate is heat-sealed and counted in a PackardTopCount® with a tritium efficiency of 31.0%.
Binding in the presence of varying concentrations of test compound is expressed as a percentage of specific binding in the absence of test compound. The results are plotted as log % bound versus log concentration of test compound.
On to `C[C@H](N)Cc1cn(S(=O)(=O)c2c(Cl)nc3sccn23)c2ccccc12` [Example 15, (S)-2-[1-(6–Chloroimidazo[2,1-b]thiazole-5-sulfonyl)-1H-indol-3-yl]-1-methylethylamine Hydrochloride], for which affinity was put at a Ki of 0.006 µM.

On to `CN(C)CCc1cn(S(=O)(=O)c2c(Cl)nc3sc(Cl)cn23)c2ccccc12` [Example 24, {2-[1-(2,6-dichloro-imidazo[2,1-b][1,3]thiazole-5-sulfonyl)-1H-indol-3-yl]ethyl}dimethylamine], for which the affinity, expressed as Ki, was 0.01 µM.

With `CNCCc1cn(S(=O)(=O)c2c(Cl)nc3sc(Cl)cn23)c2ccccc12` [Example 21, {2-[1-(2,6-dichloro-imidazo[2,1-b][1,3]thiazole-5-sulfonyl)-1H-indol-3-yl]ethyl)methylamine], the affinity, expressed as Ki, was 0.012 µM.

Turning to `CC(N)Cc1cn(S(=O)(=O)c2c(Cl)nc3sccn23)c2ccccc12` (stereo not shown) [Example 12, 2[1-(6–Chloroimidazo[2,1-b]thiazole-5-sulfonyl)-1H-indol-3-yl]-1-methylethylamine Hydrochloride], affinity was put at a Ki of 0.002 µM.

For the molecule `NCCc1cn(S(=O)(=O)c2c(Cl)nc3sccn23)c2ccc(OCc3ccccc3)cc12` [Example 33, 2-[5-benzyloxy-1-(6-chloro-imidazo[2,1-b][1,3]thiazole-5-sulfonyl)-1H-indol-3-yl]ethylamine], the Ki (as a rule, a measure of affinity in units of concentration, obtained from inhibition or displacement) is 0.169 µM.

In turn, `CN(CCc1cn(S(=O)(=O)c2c(Cl)nc3sccn23)c2ccccc12)Cc1ccccc1` [Example 9, benzyl-{2-[1-(6-chloro-imidazo[2,1-b][1,3]thiazole-5-sulfonyl)-1H-indol-3-yl]ethyl}methylamine] returned a Ki of 0.005 µM.

For the molecule `NCCc1cn(S(=O)(=O)c2cnc3sccn23)c2ccccc12` [Example 40, 2-{1-[(imidazo[2,1-b][1,3]thiazol-5-yl)sulfonyl]-1H-indol-3-yl}ethylamine], the Ki came out at 0.0012 µM.

For `CN1CCN(CCc2cn(S(=O)(=O)c3c(Cl)nc4sccn34)c3ccccc23)CC1` [Example 7, 1-(6-chloro-imidazo[2,1-b][1,3]thiazole-5-sulfonyl)-3-[2-(4-methylpiperazin-1-yl)ethyl]-1H-indole], the Ki was found to be 0.007 µM.

For `CN(C)CCc1cn(S(=O)(=O)c2c(Cl)nc3sccn23)c2ccccc12` [Example 4, {2-[1-(6-chloro-imidazo[2,1-b][1,3]thiazole-5-sulfonyl)-1H-indol-3-yl]ethyl}dimethylamine], the Ki came to 0.001 µM.

With `NCCc1cn(S(=O)(=O)c2c(Cl)nc3sc(Cl)cn23)c2ccccc12` [Example 18, 2-[1-(2,6-dichloro-imidazo[2,1-b][1,3]thiazole-5-sulfonyl)-1H-indol-3-yl]ethylamine], the Ki stood at 0.008 µM.

In the case of `COc1ccc2c(c1)c(CCN)cn2S(=O)(=O)c1c(Cl)nc2sccn12` [Example 30, 2-[1-(6-chloro-imidazo[2,1-b][1,3]thiazole-5-sulfonyl)-5-methoxy-1H-indol-3-yl]ethylamine], affinity was put at a Ki of 0.011 µM.

Regarding `NCCc1cn(S(=O)(=O)c2c(Cl)nc3sccn23)c2ccc(O)cc12` [Example 37, 3-(2-amino-ethyl)-1-(6-chloro-imidazo[2,1-b][1,3]thiazole-5-sulfonyl)-1H-indol-5-ol], the Ki was 0.004 µM.

The molecule `NCCc1cn(S(=O)(=O)c2c(Cl)nc3sccn23)c2ccc(Br)cc12` [Example 32, 2-[5-bromo-1-(6-chloro-imidazo[2,1-b][1,3]thiazole-5-sulfonyl)-1H-indol-3-yl]ethylamine] showed a Ki of 0.074 µM.

The molecule `Cc1ccc2c(c1)c(CCN)cn2S(=O)(=O)c1c(Cl)nc2sccn12` [Example 34, 2-[1-(6-chloro-imidazo[2,1-b][1,3]thiazole-5-sulfonyl)-5-methyl-1H-indol-3-yl]ethylamine] displayed a Ki of 0.031 µM.

On to `CNCCc1cn(S(=O)(=O)c2c(Cl)nc3ccccn23)c2ccccc12` [Example 20, {2-[1-(2-chloro-imidazo[1,2-a]pyridine-3-sulfonyl)-1H-indol-3-yl]ethyl}methylamine], for which the affinity, expressed as Ki, was 0.011 µM.

`NCCc1cn(S(=O)(=O)c2c(Cl)nc3sccn23)c2cc(F)ccc12` [Example 39, 2-[1-(6-chloro-imidazo[2,1-b][1,3]thiazole-5-sulfonyl)-6-fluoro-1H-indol-3-yl]ethylamine] displayed a Ki of 0.005 µM.

The molecule `Cc1cccc2c(CCN)cn(S(=O)(=O)c3c(Cl)nc4sccn34)c12` [Example 36, 2-[1-(6-chloro-imidazo[2,1-b][1,3]thiazole-5-sulfonyl)-7-methyl-1H-indol-3-yl]ethylamine] displayed a Ki of 0.348 µM.

The molecule `O=C(O)C1CCCN1CCc1cn(S(=O)(=O)c2c(Cl)nc3sccn23)c2ccccc12` (stereo not shown) [Example 11, 1-{2-[1-(6-chloro-imidazo[2,1-b][1,3]thiazole-5-sulfonyl)-1H-indol-3-yl]ethyl}pyrrolidine-2-carboxylic acid] had a Ki of 0.03 µM.

As to `NCCc1cn(S(=O)(=O)c2c(Cl)nc3sccn23)c2ccc(F)cc12` [Example 38, 2-[1-(6-chloro-imidazo[2,1-b][1,3]thiazole-5-sulfonyl)-5-fluoro-1H-indol-3-yl]ethylamine], the inhibitory constant (Ki) turned out to be 0.009 µM.

Molecule `O=S(=O)(c1c(Cl)nc2sccn12)n1cc(CCN2CCCC2)c2ccccc21` [Example 6, 1-(6-chloro-imidazo[2,1-b][1,3]thiazole-5-sulfonyl)-3-(2-pyrrolidin-1-ylethyl)-1H-indole] had a Ki of 0.005 µM.

In turn, `O=S(=O)(c1c(Cl)nc2sccn12)n1cc(CCNCc2ccccc2)c2ccccc21` [Example 5, benzyl-{2-[1-(6-chloro-imidazo[2,1-b][1,3]thiazole-5-sulfonyl)-1H-indol-3-yl]ethyl}amine] had a Ki of 0.004 µM.

In the case of `CNCCc1cn(S(=O)(=O)c2c(Cl)nc3sccn23)c2ccccc12` [Example 3, (2-[1-(6–Chloroimidazo[2,1-b]thiazole-5-sulfonyl)-1H-indol-3-yl]ethyl}methyl amine], the inhibitory constant (Ki) amounted to 0.019 µM.

`O=S(=O)(c1c(Cl)nc2sccn12)n1cc(CCNCCc2ccccc2)c2ccccc21` [Example 10, {2-[1-(6-chloro-imidazo[2,1-b][1,3]thiazole-5-sulfonyl)-1H-indol-3-yl]ethyl}phenethylamine]: the inhibition constant Ki was found to be 0.041 µM.

With `NCCc1cn(S(=O)(=O)c2c(Cl)nc3ccccn23)c2ccccc12` [Example 17, 2-[1-(2-chloro-imidazo[1,2-a]pyridine-3-sulfonyl)-1H-indol-3-yl]ethylamine], affinity was put at a Ki of 0.014 µM.

Turning to `Cc1ccc2c(CCN)cn(S(=O)(=O)c3c(Cl)nc4sccn34)c2c1` [Example 35, 2-[1-(6-chloro-imidazo[2,1-b][1,3]thiazole-5-sulfonyl)-6-methyl-1H-indol-3-yl]ethylamine], the Ki came to 0.006 µM.

Molecule `COc1ccc2c(CCN)cn(S(=O)(=O)c3c(Cl)nc4sccn34)c2c1` [Example 31, 2-[1-(6-chloro-imidazo[2,1-b][1,3]thiazole-5-sulfonyl)-6-methoxy-1H-indol-3-yl]ethylamine] yielded a Ki of 0.013 µM.

As for `C[C@@H](N)Cc1cn(S(=O)(=O)c2c(Cl)nc3sccn23)c2ccccc12` [Example 16, ®-2-[1-(6 Chloroimidazo[2,1-b]thiazole-5-sulfonyl)-1H-indol-3-yl]-1-methylethylamine Hydrochloride], the Ki was found to be 0.002 µM.

The same assay, now with this note: [3H]-LSD 3.0 nM, membranes of Hela cells expressing human cloned 5-HT6 receptors, 120 min at room temperature; read-out: 5-HT6 Binding Ki.
On to “{2-[1-(2-chloro-benzo[d]imidazo[2,1-b][1,3]thiazole-3-sulfonyl)-1H-indol-3-yl]ethyl}methylamine [Example 22]”, for which the Ki was 0.051 µM.

Turning to `NCCCc1cn(S(=O)(=O)c2c(Cl)nc3sccn23)c2ccc(F)cc12` [Example 45, 3-{1-[(6–Chloroimidazo[2,1-b][1,3]thiazol-5-yl)sulfonyl]-5-fluoro-1H-indol-3-yl}propan-1-amine], the Ki was determined as 0.048 µM.

Take “{2-[1-(2-chloro-benzo[d]imidazo[2,1-b][1,3]thiazole-3-sulfonyl)-1H-indol-3-yl]ethyl}dimethylamine [Example 25]”: the Ki worked out at 0.037 µM.

Turning to `CN(C)CCc1cn(S(=O)(=O)c2c(Cl)nc3ccccn23)c2ccccc12` [Example 23, {2-[1-(2-chloro-imidazo[1,2-a]pyridine-3-sulfonyl)-1H-indol-3-yl]ethyl}dimethyamine], the Ki was 0.01 µM.
